Tests used:
Mäusen [1] = test: Orientating acute toxicity after a single oral dose; format: in vivo; details: mice, groups of 10, observation time 14 days
Text: Die akute Toxizität der zu untersuchenden Substanzen wurde orientierend an Gruppen von je 10 Mäusen nach oraler Gabe einer Einzeldosis bestimmt (Beobachtungszeit 14 Tage): […]

Mäusen [2] = test: Prolongation of bleeding time (tail tip cut) after oral dosing; format: in vivo; details: conscious mice, 10 mg/kg p.o., 1 hour after dosing, 5 animals per test, versus controls without substance
Procedure: Da im Falle einer Verletzung die erste rasche Blutstillung durch Thrombozyten geschieht, läßt sich beim Setzen einer standardisierten Verletzung die Funktion der Thrombozylen mit Hilfe der Messung der Blutungszeit gut bestimmen. Die normale Blutungszeit beträgt beim Menschen etwa 1 bis 3 min., setzt aber leistungsfähige und in genügender Zahl vorhandene Thrombozyten voraus. Bei einer normalen Thrombozytenzahl weist also eine verlängerte Blutungszeit auf eine gestörte Funktion der Thrombozyten hin. Wir finden dies z.B. bei einigen angeborenen Thrombozytenfunktionsstörungen. Will man auf der anderen Seite die Neigung zu spontanem Zusammenballen der Thrombozyten mit der Folge von Gefäßverschlüssen im arteriellen System durch Medikamente verhindern, so muß folglich bei einer erfolgreichen thrombozytenwirksamen Therapie die Blutungszeit unter Substanzeinfluß verlängert werden. Bei einer thrombozytenwirksamen Substanz ist also eine Verlängerung der Blutungszeit und - da das plasmatische Gerinnungssystem ja nicht berührt wird -eine normale Blutgerinnungszeit zu erwarten.
Zur Bestimmung der Blutungszeit wurden die zu untersuchenden Substanzen wachen Mäusen in einer Dosis von 10 mg/kg p.o. appliziert. Nach einer Stunde wurde von der Schwanzspitze jedes Tieres ca. 0,5 mm abgeschnitten und das austretende Blut in Abständen von 30 Sekunden bis zum Sistieren der Blutung vorsichtig mit einem Filterpapier abgetupft. Die Zahl der so erhaltenen Bluttropfen ergibt ein Maß für die Blutungszeit (5 Tiere pro Versuch). Die folgenden Zahlenangaben bedeuten Prozent-Verlängerung gegenüber Kontrollen ohne Substanzgabe: […]

[3] = test system: Thrombozytenaggregation in plättchenreichem Plasma; test: Collagen-induced platelet aggregation (method of BORN and GROSS) in platelet-rich plasma; format: cell-based, Versuchspersonen; details: 10 min, plasma incubated 10 min with substance at 37°C, 50% change of optical density
Text: Die Thrombozytenaggregation wird nach der Methode von BORN und GROSS (J. Physiol. 170, 397 (1964)) in plättchenreichem Plasma gesunder Versuchspersonen gemessen. Zur Gerinnungshemmung wird das Blut mit […] 3,14 % im Volumenverhältnis 1:10 versetzt
Collagen-induzierte Aggregation
Der Verlauf der Abnahme der optischen Dichte der Plättchensuspension wird nach Zugabe der aggregationsauslösenden Substanz photometrisch gemessen und registriert. Aus dem Neigungswinkel der Dichtekurve wird auf die Aggregationsgeschwindigkeit geschlossen. Der Punkt der Kurve, bei dem die größte Lichtdurchlässigkeit vorliegt, dient zur Berechnung der "optical dens^ity".
Die Collagen-Menge wird möglichst gering gewählt, aber doch so, daß sich eine irreversibel verlaufende Reaktionskurve ergibt. Verwendet wird das handelsübliche Collagen der Firma Hormonchemie, München.
Vor der Collagen-Zugabe wird das Plasma jeweils 10 Minuten mit der Substanz bei 37°C inkubiert.
Aus den erhaltenen Meßzahlen wird graphisch eine EC50 berechnet, die sich auf eine 50%ige Änderung der "optical density" im Sinne einer Aggregationshemmung bezieht.

Compound: O=C(O)CCC(=O)c1ccc(CCNS(=O)(=O)c2ccc(Cl)cc2)cc1 [Substanz A, 3-[4-(2-(4-Chlorbenzolsulfonyl)-aminoäthyl)-benzoyl]-propionsäure]
- Orientierende akute Toxizität (Mäusen [1]; single oral dose 1.000 mg): 1.000 mg (0 von 10 Tieren gestorben)
- Verlängerung der Blutungszeit in % nach 1 Stunde (Mäusen [2]): 108%
- EC50 [3]: 4000 nM

Compound: COCCOC(=O)CCC(=O)c1ccc(CCNS(=O)(=O)c2ccccc2)cc1 [Substanz B, 3-[4-(2-Benzolsulfonylaminoäthyl)-benzoyl]-propionsäure-ß-methoxyäthylester]
- Orientierende akute Toxizität (Mäusen [1]; single oral dose 1.000 mg): 1.000 mg (0 von 10 Tieren gestorben)
- Verlängerung der Blutungszeit in % nach 1 Stunde (Mäusen [2]): 110%
- EC50 [3]: > 10000 nM

Compound: O=C1CCC(c2ccc(CCNS(=O)(=O)c3ccccc3)cc2)=NN1 [Substanz C, 6-[4-(2-Benzoylsulfonylaminoäthyl)-phenyl]-4,5-dihydro-pyridazin-(2H)-3-on]
- Orientierende akute Toxizität (Mäusen [1]; single oral dose 1.000 mg): 1.000 mg (0 von 10 Tieren gestorben)
- Verlängerung der Blutungszeit in % nach 1 Stunde (Mäusen [2]): 145%
- EC50 [3]: 3300 nM

Compound: Cc1ccc(S(=O)(=O)NCCc2ccc(C3=NNC(=O)CC3C)cc2)cc1 (stereo not drawn) [Substanz D, 6-[4-(2-(p-Toluolsulfonyl)-aminoäthyl)-phenyl]-5-methyl-4,5-dihydro-pyridazin-(2H)-3-on]
- Orientierende akute Toxizität (Mäusen [1]; single oral dose 1.000 mg): 1.000 mg (0 von 10 Tieren gestorben)
- Verlängerung der Blutungszeit in % nach 1 Stunde (Mäusen [2]): 187%
- EC50 [3]: 2400 nM

Compound: O=C1CCC(c2ccc(OCCNS(=O)(=O)c3ccccc3)cc2)=NN1 [Substanz E, 6-[4-(2-Benzolsulfonylaminoäthoxy)-phenyl]-4,5-dihydro-pyridazin-(2H)-3-on]
- Orientierende akute Toxizität (Mäusen [1]; single oral dose 1.000 mg): 1.000 mg (0 von 10 Tieren gestorben)
- Verlängerung der Blutungszeit in % nach 1 Stunde (Mäusen [2]): 233%
- EC50 [3]: 3000 nM

Compound: O=C(O)CCC(=O)c1ccc(CCNS(=O)(=O)c2ccccc2)cc1 [Substanz F, 3-[4-(2-Benzolsulfonylamino-äthyl)-benzoyl]-propionsäure]
- Orientierende akute Toxizität (Mäusen [1]; single oral dose 250 mg): 250 mg (0 von 10 Tieren gestorben)
- Verlängerung der Blutungszeit in % nach 1 Stunde (Mäusen [2]): >266%
- EC50 [3]: 3000 nM

From EP0194548A2, “Sulfonylaminoethyl compounds, medicines containing these compounds and process for their preparation” (Dr. Karl Thomae GmbH, priority 1985, dated 1986)
